Results published in patent publication US7125858B2, “Hyaluronic acid in the treatment of cancer” (Bioniche Life Sciences Inc., priority 1999, dated 2006).

Key:
[1] = tested on: MCF-7 human breast cancer cells; test: MTT cell proliferation, MCF-7; format: cell-based
Experimental: (§1) Cell proliferation was measured using dimethylthiazoldiphenyltetrazolium (MTT) reduction (Mosman et al. J. Immunol. Methods 65:55, 1983). Unless otherwise stated, 100 μl of 5 mg of MTT (Sigma-Aldrich, St. Louis, Mo., USA) dissolved in 1 ml of PBS was added into each well. After 4 h, medium was removed from each well, 1.0 ml of acid-isopropanol (0.04 N HCl in isopropanol) was added and reduced MTT was solubilized by mixing. Absorbency of the reaction product was measured at a wavelength of 570 nm using a multiplate spectrophotometer reader (Elx800 Model, Bio-TEK Instruments Inc., Winooski, Vt., USA).
(§2) Unless stated otherwise 1.0×10^5 cells/ml were seeded in 6-well flat-bottom tissue culture plates and were maintained for 48 h at 37° C. in a 5% CO2 atmosphere.
(§3) PC-3, LNCAP and Du-145 human prostate cancer cells; MCF-7 human breast cancer cells; HT-1080 human fibrosarcoma cancer cells; B16F1 murine melanoma cells; and, UMUC-3, RT-4, HT-1376 and T-24 human bladder cancer cells were incubated with 0.8, 8.0 and 80 μg/ml of 5.0–7.5×10^5 Da HA (Table 2).
(§4) Unless stated otherwise 2.0×10^4 cells/ml were seeded in 24-well plates and were maintained for 48 h at 37° C. in a 5% CO2 atmosphere. MTT was used at 50 μl per well.
(§5) T-24 human bladder cancer cells, PC-3 and Du-145 human prostate cancer cells, and MCF-7 human breast cancer cell were incubated with saline or with 80.0 μg/ml of 5.0–7.5×10^5 Da HA+1.0 μg/ml of M-DNA (Table 4).
MCF-7 human breast cancer cells (2.5×10^5 cells/ml) were incubated as in Example 6 with 0.0, 0.01 and 0.1 μg/ml of 5.0–7.5×10^5 Da HA+100 μg/ml of the synthetic 6 base oligonucleotide GG(GT)1GG (SEQ ID NO:1) or +100 μg/ml of the […] 27 base oligonucleotide (GT)13G (SEQ ID NO:2) (Table 6). MTT was used at 50 μl per well.
(§6) RT-4 human bladder cancer cells and MCF-7 human breast cancer cells were incubated as in Example 6 with 0.0, 0.008 or 0.08 μg/ml of 5.0–7.5×10^5 Da HA+0.1 μg/ml of CIS, +1.0 μg/ml of 5-FU or +10 μg/ml of 5-FU (Table 7).
(§7) CD44 expression and the inhibition of proliferation by 5.0–7.5×10^5 Da HA were measured using Jurkat T cell leukemia cells; MCF-7 human breast cancer cells; RT-4, T-24, HT-1376 and UMUC-3 human bladder cancer cells; and, PC-3, Du-145 and LNCaP prostate cancer cells (Table 8)

[2] = tested on: PC-3 human prostate cancer cells; test: MTT cell proliferation, PC-3; format: cell-based; conditions: 48 h
Experimental: as §1, §2, §3
(§8) PC-3. LNCaP and Du-145 human prostate cancer cells were incubated with 8.0 μg/ml of 5.0–7.5×10^5 Da HA or of <1.5×10^4 Da HA (Table 3).
as §4, §5, §7

[3] = tested on: HT-1376 human bladder cancer cells; test: MTT cell proliferation, HT-1376; format: cell-based; conditions: 48 h
Experimental: as §1, §2, §3, §4
(§9) HT-1376, RT-4 and T-24 human bladder cancer cells were incubated with 0.8 μg/ml of 5.0–7.5×10^5 Da HA+1.0 μg/ml of MCC (Table 5).
as §7

[4] = tested on: HT-1080 human fibrosarcoma cancer cells; test: MTT cell proliferation, HT-1080; format: cell-based; conditions: 1.0×10^5 cells/ml, 48 h
Experimental: as §1, §2, §3

[5] = tested on: LNCaP human prostate cancer cells; test: MTT cell proliferation, LNCaP; format: cell-based; conditions: 1.0×10^5 cells/ml, 48 h
Experimental: as §1, §2, §3, §8, §7

IL-12 = IL-12 production by PBMCs (ELISA); format: cell-based, human
Experimental: (§10) Peripheral blood mononuclear cells (hereinafter, “PBMCs”) were isolated from the blood of 5 healthy humans by Ficoll-Hypaque (Amersham Pharmacia Biotech, Baie d'Urfée, Québec, Canada) density gradient centrifugation of whole blood. Stimulation of IL-6 and IL-12 production by the immune system cells was determined using the appropriate commercial ELISA (BioSource, Camarillo, Calif., USA). Results are expressed as the “fold” (x) increases in cytokine production by treated cells compared to control cells. PBMCs were incubated with 1 mg/ml of 5.0–7.5×10^5 Da and production of IL-6 and IL-12 was determined (Table 9). PBMCs, isolated from the blood of individual #1, were incubated with 0.008, 0.04, 0.2 and 1 mg/ml of 5.0–7.5×10^5 Da (Table 10)

[6] = tested on: UMUC-3 human bladder cancer cells; test: MTT cell proliferation, UMUC-3; format: cell-based; conditions: 1.0×10^5 cells/ml, 48 h
Experimental: as §1, §2, §3, §7

[7] = tested on: Jurkat T cell leukemia cells; test: MTT cell proliferation, Jurkat T; format: cell-based; conditions: HA 80 μg/ml alone
Experimental: as §1, §7

[8] = tested on: T-24 human bladder cancer cells; test: MTT cell proliferation, T-24; format: cell-based; conditions: 48 h
Experimental: as §1, §2, §3, §4, §5, §9, §7

IL-6 = IL-6 production by PBMCs (ELISA); format: cell-based, human
Experimental: as §10

[9] = tested on: B16F1 murine melanoma cells; test: MTT cell proliferation, B16F1; format: cell-based; conditions: 1.0×10^5 cells/ml, 48 h
Experimental: as §1, §2, §3

[10] = tested on: RT-4 human bladder cancer cells; test: MTT cell proliferation, RT-4; format: cell-based
Experimental: as §1, §2, §3, §4, §9, §6, §7

[11] = tested on: Du-145 human prostate cancer cells; test: MTT cell proliferation, Du-145; format: cell-based; conditions: 48 h
Experimental: as §1, §2, §3, §8, §4, §5, §7

[12] = tested on: B16F10 murine melanoma tumor; conditions: HA 1 mg/ml over 7 days by Alzet osmotic pump into the immediate vicinity of the tumor; cited from earlier work
colon-26 cancer cells = conditions: HA alone; colon-26 cells express high levels of HA receptors (Freemantle et al. 1995); cited from earlier work
[13] = tested on: rectal, gastric, breast, prostate and endometrial cancers; conditions: HA >750 mg/kg administered with various other therapeutic agents over various periods of time (PCT/CA/00283); cited from earlier work
[14] = MCF-7 2.5×10^5 cells/ml, oligonucleotide 100 μg/ml alone (HA 0.0 μg/ml)
[15] = HA 0.8 μg/ml alone, 1.0×10^5 cells/ml
[16] = HA 8.0 μg/ml alone, 1.0×10^5 cells/ml, listed as 0.5–7.5 × 10^5 Da HA
[17] = HA 80.0 μg/ml alone (+ saline), 2.0×10^4 cells/ml, 24-well
[18] = HA 8.0 μg/ml alone, 1.0×10^5 cells/ml
[19] = HA 80.0 μg/ml alone, 1.0×10^5 cells/ml
[20] = HA at 0.8 μg/ml alone (+ saline), 2.0×10^4 cells/ml, 24-well
[21] = PBMCs of individual 1, HA 1 mg/ml
[22] = PBMCs of individual 2, HA 1 mg/ml
[23] = PBMCs of individual 3, HA 1 mg/ml
[24] = PBMCs of individual 4, HA 1 mg/ml
[25] = PBMCs of individual 5, HA 1 mg/ml
[26] = PBMCs of individual #1, HA 0.008 mg/ml
[27] = PBMCs of individual #1, HA 0.040 mg/ml
[28] = PBMCs of individual #1, HA 0.200 mg/ml

(GT)13G (DNA GTGTGTGTGTGTGTGTGTGTGTGTGTG; listed as DNA, chemistry not given here) [(G1T)13G, synthetic 27 base oligonucleotide]
% inhibition of cell proliferation [1, 14]: 44%

GG(GT)1GG
% inhibition of cell proliferation [1, 14]: 20%

Hyaluronic acid [5.0–7.5 × 10^5 Da HA]
% inhibition of cell proliferation [2, 15]: 15% | % inhibition of cell proliferation [2, 16]: 26% | % inhibition of cell proliferation [2, 17]: 30% | % inhibition of cell proliferation [3, 15]: 0% | % inhibition of cell proliferation [3, 18]: 3% | % inhibition of cell proliferation [3, 19]: 1% | % inhibition of cell proliferation [3, 20]: 3% | % inhibition of cell proliferation ([4]; HA 0.8 μg/ml alone): 4% | % inhibition of cell proliferation ([4]; HA 8.0 μg/ml alone): 4% | % inhibition of cell proliferation ([4]; HA 80.0 μg/ml alone): 36% | % inhibition of cell proliferation ([5]; HA 0.8 μg/ml alone): 7% | % inhibition of cell proliferation ([5]; HA 8.0 μg/ml alone, listed as 0.5–7.5 × 10^5 Da HA): 13% | IL-12 production, fold increase vs control cells (IL-12; [21]): 25.2x | IL-12 production, fold increase vs control cells (IL-12; [22]): 7.1x | IL-12 production, fold increase vs control cells (IL-12; [23]): 26.5x | IL-12 production, fold increase vs control cells (IL-12; [24]): 10.0x | IL-12 production, fold increase vs control cells (IL-12; [25]): 8.5x | IL-12 production, fold increase vs control cells (IL-12; [26]): 4.9x | IL-12 production, fold increase vs control cells (IL-12; [27]): 13.8x | IL-12 production, fold increase vs control cells (IL-12; [28]): 8.5x | % inhibition of cell proliferation ([6]; HA 0.8 μg/ml alone): 10% | % inhibition of cell proliferation ([6]; HA 8.0 μg/ml alone): 10% | % inhibition of cell proliferation ([6]; HA 80.0 μg/ml alone): 2% | % inhibition of proliferation [7]: 0% | % inhibition of cell proliferation [8, 15]: 10% | % inhibition of cell proliferation [8, 18]: 8% | % inhibition of cell proliferation [8, 17]: 0% | % inhibition of cell proliferation [8, 19]: 0% | % inhibition of cell proliferation [8, 20]: 8% | IL-6 production, fold increase vs control cells (IL-6; [21]): 3.8x | IL-6 production, fold increase vs control cells (IL-6; [22]): 1.8x | IL-6 production, fold increase vs control cells (IL-6; [23]): 4.1x | IL-6 production, fold increase vs control cells (IL-6; [24]): 1.4x | IL-6 production, fold increase vs control cells (IL-6; [25]): 6.3x | IL-6 production, fold increase vs control cells (IL-6; [26]): 2.4x | IL-6 production, fold increase vs control cells (IL-6; [27]): 3.5x | IL-6 production, fold increase vs control cells (IL-6; [28]): 2.9x | % inhibition of cell proliferation ([9]; HA 0.8 μg/ml alone): 20% | % inhibition of cell proliferation ([9]; HA 8.0 μg/ml alone): 20% | % inhibition of cell proliferation ([9]; HA 80.0 μg/ml alone): 30% | % inhibition of cell proliferation ([10]; HA 0.008 μg/ml alone (+ saline), as in Example 6): 0% | % inhibition of cell proliferation ([10]; HA 0.08 μg/ml alone (+ saline), as in Example 6): 0% | % inhibition of cell proliferation ([10]; HA 0.8 μg/ml alone, 1.0×10^5 cells/ml, 48 h): 12% | % inhibition of cell proliferation ([10]; HA 8.0 μg/ml alone, 1.0×10^5 cells/ml, 48 h): 13% | % inhibition of cell proliferation ([10]; HA 80.0 μg/ml alone, 1.0×10^5 cells/ml, 48 h): 5% | % inhibition of cell proliferation ([10]; HA at 0.8 μg/ml alone (+ saline), 2.0×10^4 cells/ml, 24-well, 48 h): 13% | % inhibition of cell proliferation [11, 15]: 6% | % inhibition of cell proliferation [11, 16]: 15% | % inhibition of cell proliferation [11, 17]: 38% | % inhibition of cell proliferation [11, 19]: 38% | % inhibition of cell proliferation ([1]; MCF-7 2.5×10^5 cells/ml, HA 0.01 μg/ml alone, no oligonucleotide): 6% | % inhibition of cell proliferation ([1]; MCF-7 2.5×10^5 cells/ml, HA 0.1 μg/ml alone, no oligonucleotide): 5% | % inhibition of cell proliferation ([1]; MCF-7, HA 0.008 μg/ml alone (+ saline), as in Example 6): 12% | % inhibition of cell proliferation ([1]; MCF-7, HA 0.08 μg/ml alone (+ saline), as in Example 6): 12% | % inhibition of cell proliferation ([1]; MCF-7, HA 0.8 μg/ml alone, 1.0×10^5 cells/ml, 48 h): 19% | % inhibition of cell proliferation ([1]; MCF-7, HA 8.0 μg/ml alone, 1.0×10^5 cells/ml, 48 h): 24% | % inhibition of cell proliferation ([1]; MCF-7, HA 80.0 μg/ml alone (+ saline), 2.0×10^4 cells/ml, 24-well, 48 h): 35% | % inhibition of cell proliferation ([1]; MCF-7, HA 80.0 μg/ml alone, 1.0×10^5 cells/ml, 48 h): 35%

Hyaluronic acid [<1.5 × 10^4 Da HA]
% inhibition of cell proliferation [2, 18]: 5% | % inhibition of cell proliferation ([5]; HA 8.0 μg/ml alone): 24% | % inhibition of cell proliferation [11, 18]: 37%

Hyaluronic acid [HA]
% inhibition of cell proliferation [2, 19]: 30% | % inhibition of cell proliferation ([5]; HA 80.0 μg/ml alone): 26% | reduction of tumor volume [12]: > 85% | growth of cancer cells (colon-26 cancer cells): significantly inhibits | effect on cancers [13]: reduced or eliminated
